This note sets out measurements from PMC7837216, “ISRIB Blunts the Integrated Stress Response by Allosterically Antagonising the Inhibitory Effect of Phosphorylated eIF2 on eIF2B” (Molecular Cell, 2021).

A word on the pEC50: it is the EC50 on a negative log10 scale, so that one unit is a factor of ten.

Assay [1] addresses T1, eIF2B (decamer; ISRIB pocket formed by the β- and δ-subunits) (Homo sapiens, UniProt P49770+Q9UI10). The assay can be described thus: fluorescence polarization, kinetic displacement by unlabelled ISRIB (koff). Format: binding. On the set-up: gene EIF2B2; purified recombinant human eIF2B decamer; with eIF2Bβ (EIF2B2), with eIF2Bα, γ, ε in the decamer. In general terms: In fluorescence polarisation assays a small probe gives low polarisation when free and higher when bound to something large.

The target of assay [2] is T1, eIF2B (decamer; ISRIB pocket formed by the β- and δ-subunits). The assay can be described thus: FP competition with FAM-ISRIB; BLI (ISRIB-induced dissociation of eIF2B from P-eIF2α-NTD). Format: binding. On the set-up: gene EIF2B2; purified recombinant human eIF2B decamer; with eIF2Bβ (EIF2B2), with eIF2Bα, γ, ε in the decamer; P-eIF2α-NTD immobilised in the BLI assay.

pEC50: −log10 of the molar value.

As to FAM-ISRIB, in assay [1], the “fluorescence polarization, kinetic displacement by unlabelled ISRIB (koff)” value was determined as 0.0123 s⁻¹.

On to `O=C(COc1ccc(Cl)cc1)N[C@H]1CC[C@H](NC(=O)COc2ccc(Cl)cc2)CC1` [ISRIB], for which the pEC50 in assay [2] was 8.74.
